# Key:
# [1] = Aqueous stability of roxithromycin (% Purity by HPLC); type: physicochemical; settings: 2 mg/mL
# Procedure: Roxithromycin stability was determined for 2 mg/mL [roxithromycin] at 5, 25, and 40° C. as a function of pH and buffer (citrate) concentration. Roxithromycin %Purity was determined by area normalization using a reverse-phase HPLC method that meets the requirements of the EP Monograph. Solution pH values were determined per USP <791>.
# [2] = Stability of formoterol fumarate and roxithromycin co-formulated in oral solution; type: physicochemical; settings: co-formulated 0.005 mg/mL formoterol fumarate + 2.0 mg/mL roxithromycin, pH 6.0, 20 mM citrate, 4.5% mannitol, 0.1% potassium sorbate
# Procedure: Roxithromycin Potency was assayed by a reverse-phase HPLC method that meets the requirements of the European Pharmacopeia (EP) Monograph for roxithromycin.
smiles,measurement,setting,value
CC[C@H]1OC(=O)[C@H](C)[C@@H](O[C@H]2C[C@@](C)(OC)[C@@H](O)[C@H](C)O2)[C@H](C)[C@@H](O[C@@H]2O[C@H](C)C[C@H](N(C)C)[C@H]2O)[C@](C)(O)C[C@@H](C)/C(=N\OCOCCOC)[C@H](C)[C@@H](O)[C@]1(C)O [roxithromycin],Roxithromycin % Purity By Area Normalization,"[1]; 25° C., citrate pH 6, 50 mM, 1.5 mo",89%
same,Roxithromycin % Purity By Area Normalization,"[1]; 25° C., citrate pH 6, 50 mM, 2.6 mo",85%
same,Roxithromycin % Purity By Area Normalization,"[1]; 25° C., citrate pH 6, 50 mM, 5.3 mo",81%
same,Roxithromycin % Purity By Area Normalization,"[1]; 25° C., citrate pH 6, 50 mM, 7.3 mo",78%
same,Roxithromycin % Purity By Area Normalization,"[1]; 40° C., citrate pH 4, 20 mM, 0 mo",81%
same,Roxithromycin % Purity By Area Normalization,"[1]; 40° C., citrate pH 4, 20 mM, 0.3 mo",27%
same,Roxithromycin % Purity By Area Normalization,"[1]; 40° C., citrate pH 4, 20 mM, 0.5 mo",10%
same,Roxithromycin % Purity By Area Normalization,"[1]; 40° C., citrate pH 4, 20 mM, 0.9 mo",2%
same,Roxithromycin % Purity By Area Normalization,"[1]; 40° C., citrate pH 4, 50 mM, 0 mo",78%
same,Roxithromycin % Purity By Area Normalization,"[1]; 40° C., citrate pH 4, 50 mM, 0.3 mo",15%
same,Roxithromycin % Purity By Area Normalization,"[1]; 40° C., citrate pH 4, 50 mM, 0.5 mo",3%
same,Roxithromycin % Purity By Area Normalization,"[1]; 40° C., citrate pH 4, 50 mM, 0.9 mo",1%
same,Roxithromycin % Purity By Area Normalization,"[1]; 40° C., citrate pH 5, 20 mM, 0 mo",96%
same,Roxithromycin % Purity By Area Normalization,"[1]; 40° C., citrate pH 5, 20 mM, 0.3 mo",74%
same,Roxithromycin % Purity By Area Normalization,"[1]; 40° C., citrate pH 5, 20 mM, 0.5 mo",66%
same,Roxithromycin % Purity By Area Normalization,"[1]; 40° C., citrate pH 5, 20 mM, 0.9 mo",60%
same,Roxithromycin % Purity By Area Normalization,"[1]; 40° C., citrate pH 5, 20 mM, 1.5 mo",50%
same,Roxithromycin % Purity By Area Normalization,"[1]; 40° C., citrate pH 5, 20 mM, 2.6 mo",36%
same,Roxithromycin % Purity By Area Normalization,"[1]; 40° C., citrate pH 5, 20 mM, 5.3 mo",21%
same,Roxithromycin % Purity By Area Normalization,"[1]; 40° C., citrate pH 5, 50 mM, 0 mo",92%
same,Roxithromycin % Purity By Area Normalization,"[1]; 40° C., citrate pH 5, 50 mM, 0.3 mo",66%
same,Roxithromycin % Purity By Area Normalization,"[1]; 40° C., citrate pH 5, 50 mM, 0.5 mo",55%
same,Roxithromycin % Purity By Area Normalization,"[1]; 40° C., citrate pH 5, 50 mM, 0.9 mo",44%
same,Roxithromycin % Purity By Area Normalization,"[1]; 40° C., citrate pH 5, 50 mM, 1.5 mo",28%
same,Roxithromycin % Purity By Area Normalization,"[1]; 40° C., citrate pH 5, 50 mM, 2.6 mo",13%
same,Roxithromycin % Purity By Area Normalization,"[1]; 40° C., citrate pH 5, 50 mM, 5.3 mo",3%
same,Roxithromycin % Purity By Area Normalization,"[1]; 40° C., citrate pH 5, 100 mM, 0 mo",90%
same,Roxithromycin % Purity By Area Normalization,"[1]; 40° C., citrate pH 5, 100 mM, 0.3 mo",60%
same,Roxithromycin % Purity By Area Normalization,"[1]; 40° C., citrate pH 5, 100 mM, 0.5 mo",46%
same,Roxithromycin % Purity By Area Normalization,"[1]; 40° C., citrate pH 5, 100 mM, 0.9 mo",31%
same,Roxithromycin % Purity By Area Normalization,"[1]; 40° C., citrate pH 5, 100 mM, 1.5 mo",14%
same,Roxithromycin % Purity By Area Normalization,"[1]; 40° C., citrate pH 5, 100 mM, 2.6 mo",4%
same,Roxithromycin % Purity By Area Normalization,"[1]; 40° C., citrate pH 6, 20 mM, 0 mo",98%
same,Roxithromycin % Purity By Area Normalization,"[1]; 40° C., citrate pH 6, 20 mM, 0.3 mo",95%
same,Roxithromycin % Purity By Area Normalization,"[1]; 40° C., citrate pH 6, 20 mM, 0.5 mo",92%
same,Roxithromycin % Purity By Area Normalization,"[1]; 40° C., citrate pH 6, 20 mM, 0.9 mo",89%
same,Roxithromycin % Purity By Area Normalization,"[1]; 40° C., citrate pH 6, 20 mM, 1.5 mo",84%
same,Roxithromycin % Purity By Area Normalization,"[1]; 40° C., citrate pH 6, 20 mM, 2.6 mo",79%
same,Roxithromycin % Purity By Area Normalization,"[1]; 40° C., citrate pH 6, 20 mM, 5.3 mo",76%
same,Roxithromycin % Purity By Area Normalization,"[1]; 40° C., citrate pH 6, 50 mM, 0 mo",98%
same,Roxithromycin % Purity By Area Normalization,"[1]; 40° C., citrate pH 6, 50 mM, 0.3 mo",89%
same,Roxithromycin % Purity By Area Normalization,"[1]; 40° C., citrate pH 6, 50 mM, 0.5 mo",82%
same,Roxithromycin % Purity By Area Normalization,"[1]; 40° C., citrate pH 6, 50 mM, 0.9 mo",77%
same,Roxithromycin % Purity By Area Normalization,"[1]; 40° C., citrate pH 6, 50 mM, 1.5 mo",71%
same,Roxithromycin % Purity By Area Normalization,"[1]; 40° C., citrate pH 6, 50 mM, 2.6 mo",65%
same,Roxithromycin % Purity By Area Normalization,"[1]; 40° C., citrate pH 6, 50 mM, 5.3 mo",61%
same,Roxithromycin % Purity By Area Normalization,"[1]; 40° C., citrate pH 6, 100 mM, 0 mo",98%
same,Roxithromycin % Purity By Area Normalization,"[1]; 40° C., citrate pH 6, 100 mM, 0.3 mo",85%
same,Roxithromycin % Purity By Area Normalization,"[1]; 40° C., citrate pH 6, 100 mM, 0.5 mo",77%
same,Roxithromycin % Purity By Area Normalization,"[1]; 40° C., citrate pH 6, 100 mM, 0.9 mo",72%
same,Roxithromycin % Purity By Area Normalization,"[1]; 40° C., citrate pH 6, 100 mM, 1.5 mo",66%
same,Roxithromycin % Purity By Area Normalization,"[1]; 40° C., citrate pH 6, 100 mM, 2.6 mo",58%
same,Roxithromycin % Purity By Area Normalization,"[1]; 40° C., citrate pH 6, 100 mM, 5.3 mo",48%
same,Roxithromycin Potency,"[2]; week 0, 5 ° C.",1920 mg/L
same,Roxithromycin Potency,"[2]; week 0, 25 ° C.",1920 mg/L
same,Roxithromycin Potency,"[2]; week 0, 40 ° C.",1920 mg/L
same,Roxithromycin Potency,"[2]; week 2, 25 ° C.",1740 mg/L
same,Roxithromycin Potency,"[2]; week 2, 40 ° C.",1610 mg/L
same,Roxithromycin Potency,"[2]; week 4, 5 ° C.",1920 mg/L
same,Roxithromycin Potency,"[2]; week 4, 25 ° C.",1710 mg/L
same,Roxithromycin Potency,"[2]; week 4, 40 ° C.",1470 mg/L

# From US20070149465A1, “COMPOSITIONS AND METHODS FOR PREVENTION AND TREATMENT OF CACHEXIA” (priority 2005, published 2007)
